Where two headings read alike, the source gives them in different places.
Assays:
[1] = target: soluble human BACE1 catalytic domain (Homo sapiens (Human), UniProt P56817); assay: BACE1 HTRF FRET Assay; conditions: for inhibition at 10 µM: read-out: BACE1 inhibition, % Inh. at 10 μM, at 10 μM
[2] = target: purified human autoBACE-2 (Homo sapiens (Human), UniProt Q9Y5Z0); assay: BACE-2 Assay (BACE-HTRF assay); format: biochemical; conditions: for inhibition at 10 µM: read-out: inhibition of BACE2 at 10 μM
Chain of purified human autoBACE-2 (Q9Y5Z0 63-473): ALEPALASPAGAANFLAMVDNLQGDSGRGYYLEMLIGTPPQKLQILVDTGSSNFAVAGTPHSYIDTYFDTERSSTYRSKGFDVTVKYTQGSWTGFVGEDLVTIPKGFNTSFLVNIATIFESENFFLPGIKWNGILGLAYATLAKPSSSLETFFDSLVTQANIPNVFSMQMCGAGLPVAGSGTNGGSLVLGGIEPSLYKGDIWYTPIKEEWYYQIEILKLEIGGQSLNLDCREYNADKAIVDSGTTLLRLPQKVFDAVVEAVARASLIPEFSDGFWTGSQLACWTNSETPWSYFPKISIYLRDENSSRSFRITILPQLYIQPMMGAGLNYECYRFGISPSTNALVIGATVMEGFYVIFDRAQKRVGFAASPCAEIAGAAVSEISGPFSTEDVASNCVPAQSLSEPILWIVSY
Method: Inhibitor IC50s at purified human autoBACE-2 are determined in a time-resolved endpoint proteolysis assay that measures hydrolysis of the QSY7-[…]-Eu-amide FRET peptide substrate (BACE-HTRF assay). […] DMSO is present at 5% final concentration in the assay. Following laser excitation of sample wells at 320 nm, the fluorescence signal at 620 nm is collected for 400 ms following a 50 μs delay on a RUBYstar HTRF plate reader (BMG Labtechnologies). Raw RFU data is normalized to maximum (1.0 nM BACE/DMSO) and minimum (no enzyme/DMSO) RFU values. […] The Ki values are calculated from the IC50 using the Cheng-Prusoff equation.

[3] = Ki calculated from IC50 using the Cheng-Prusoff equation, read-out: BACE2 Ki
[4] = read-out: BACE1 Ki, Ki calculated from IC50 using the Cheng-Prusoff equation

Chain of soluble human BACE1 catalytic domain (P56817 75-416): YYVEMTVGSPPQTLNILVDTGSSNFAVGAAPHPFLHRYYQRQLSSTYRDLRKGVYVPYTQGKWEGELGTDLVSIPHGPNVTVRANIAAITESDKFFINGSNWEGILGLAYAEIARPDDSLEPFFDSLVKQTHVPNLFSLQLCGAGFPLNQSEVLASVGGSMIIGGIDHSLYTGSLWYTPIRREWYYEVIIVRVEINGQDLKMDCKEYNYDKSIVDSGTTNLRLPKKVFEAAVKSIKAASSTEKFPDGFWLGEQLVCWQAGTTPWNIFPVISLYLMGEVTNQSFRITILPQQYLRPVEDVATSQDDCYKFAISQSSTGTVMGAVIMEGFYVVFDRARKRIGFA

Ki [2, 3] [nM]	Ki [1, 4] [nM]	SMILES	also measured
16		CC1(C)C(=N)N[C@](C)(c2cc(NC(=O)c3cnc(OCC4CC4)cn3)ccc2F)CS1(=O)=O [Example 9p]	
21		CC1(C)C(=N)N[C@](C)(c2sc(-c3cccc(-c4nnco4)c3)cc2Cl)CS1(=O)=O [Example 27ae]	
< 200		COc1cccc2cc(-c3ccc(F)c([C@]4(C)CS(=O)(=O)C(C)(C)C(=N)N4)c3)[nH]c12 [compound 11]	

Further lines, the molecule ahead of its results:

SMILES	Ki [2, 3] [nM]	Ki [1, 4] [nM]	also measured
Cc1nc2ccc(CC3(C)C(=N)N[C@](C)(c4cc(F)ccc4F)CS3(=O)=O)cc2s1 (mixture of isomers) [32b-a and 32b-b]			inhibition at 10 µM [1]: 11%; inhibition at 10 µM [2]: 1 to 24%
C[C@@]1(C2CC2)C(=N)N[C@](C)(c2cc([N+](=O)[O-])ccc2F)CS1(=O)=O [Entry 30]			inhibition at 10 µM [1]: 30%; inhibition at 10 µM [2]: 29 to 47%
C[C@@]1(C2CCC2)C(=N)N[C@](C)(c2cc(N)ccc2F)CS1(=O)=O [Entry 40]			inhibition at 10 µM [1]: 20%; inhibition at 10 µM [2]: 29 to 47%
C[C@@]1(c2cccc(F)c2)C(=N)N[C@](C)(c2cc(N)ccc2F)CS1(=O)=O [Entry 61]			inhibition at 10 µM [1]: 27%; inhibition at 10 µM [2]: 29 to 47%
C[C@@]1(c2cccc(C(F)(F)F)c2)C(=N)N[C@](C)(c2cc(N)ccc2F)CS1(=O)=O [Entry 69]			inhibition at 10 µM [1]: 17%; inhibition at 10 µM [2]: 29 to 47%
C[C@@]1(c2ccccn2)C(=N)N[C@](C)(c2cc(N)ccc2F)CS1(=O)=O [Entry 77]			inhibition at 10 µM [1]: 25%; inhibition at 10 µM [2]: 29 to 47%
C[C@@]1(c2cccc(F)c2)C(=N)N[C@](C)(c2sc(Br)cc2F)CS1(=O)=O [Entry 88]			inhibition at 10 µM [1]: 34%; inhibition at 10 µM [2]: 29 to 47%
CC1(C)C(=N)N[C@](C)(c2cc(N)ccc2F)CS1(=O)=O [Example 2-2]			Ki ([1]; read-out: BACE1 inhibition, Ki): 6100 nM; Ki [2]: 500 to 10000 nM
CC1(C)C(=N)N[C@](C)(c2cc(N)cc(F)c2F)CS1(=O)=O [Example 2A-5]	500 to 10000		inhibition at 10 µM [1]: 51%
CC1(C)C(N)=N[C@](C)(c2cc(Br)ccc2F)CS1(=O)=O [Example 3-3]	500 to 10000		inhibition at 10 µM [1]: 56%
CC1(C)C(=N)N[C@](C)(c2sc(Br)cc2Cl)CS1(=O)=O [Example 4-1]	500 to 10000		Ki ([1]; read-out: BACE1 inhibition, Ki): 1500 nM
COc1ccc(C(=O)Nc2cc(F)c(F)c([C@]3(C)CS(=O)(=O)C(C)(C)C(=N)N3)c2F)nc1 [Example 9ac]	13	18.9	
CC1(C)C(=N)N[C@](C)(c2c(F)c(F)cc(NC(=O)c3ccc(C(F)(F)F)cn3)c2F)CS1(=O)=O [Example 9ad]	41	7.9	
COc1cnc(C(=O)Nc2cc(F)c(F)c([C@]3(C)CS(=O)(=O)C(C)(C)C(=N)N3)c2F)cn1 [Example 9ae]	69	45.4	
CC(F)(F)C(=O)Nc1ccc(F)c([C@]2(C)CS(=O)(=O)C(C)(C)C(=N)N2)c1 [Example 9ai]	18	82	
COCC(=O)Nc1ccc(F)c([C@]2(C)CS(=O)(=O)C(C)(C)C(=N)N2)c1 [Example 9at]	14	60	
CC1(C)C(=N)N[C@](C)(c2cc(NC(=O)C3CCC3(F)F)ccc2F)CS1(=O)=O (stereo partly drawn) [Example 9aw]	47	299	
CC1(C)C(=N)N[C@](C)(c2cc(NC(=O)c3ccno3)ccc2F)CS1(=O)=O [Example 9ax]	22	82	
CC1(C)C(=N)N[C@](C)(c2cc(NC(=O)c3ncc(F)cc3F)cc(F)c2F)CS1(=O)=O [Example 9ba]	1	21	
CC1(C)C(=N)N[C@](C)(c2cc(NC(=O)C(F)F)cc(F)c2F)CS1(=O)=O [Example 9bd]	40	233	

SMILES	Ki [2, 3] [nM]	Ki [1, 4] [nM]	also measured
CC1(C)C(=N)N[C@](C)(c2cc(NC(=O)c3ccc(C(F)(F)F)cn3)cc(F)c2F)CS1(=O)=O [Example 9bf]	11	25	
CC1(C)C(=N)N[C@](C)(c2cc(NC(=O)c3ccc(C#N)cn3)cc(F)c2F)CS1(=O)=O [Example 9bg]	3	6	
Cc1ccc(C(=O)Nc2cc(F)c(F)c([C@]3(C)CS(=O)(=O)C(C)(C)C(=N)N3)c2)nc1 [Example 9bh]	4	13	
CC1(C)C(=N)N[C@](C)(c2cc(NC(=O)c3ccc(Cl)cc3)cc(F)c2F)CS1(=O)=O [Example 9bi]	9	22	
COCC(=O)Nc1cc(F)c(F)c([C@]2(C)CS(=O)(=O)C(C)(C)C(=N)N2)c1 [Example 9bk]	12	112	
CC(F)(F)C(=O)Nc1cc(F)c(F)c([C@]2(C)CS(=O)(=O)C(C)(C)C(=N)N2)c1 [Example 9bl]	40	79	
Cc1cnc(C(=O)Nc2cc(F)c(F)c([C@]3(C)CS(=O)(=O)C(C)(C)C(=N)N3)c2)cn1 [Example 9bo]	22	69	
CC1(C)C(=N)N[C@](C)(c2cc(NC(=O)c3cocn3)cc(F)c2F)CS1(=O)=O [Example 9bu]	5	42	
COc1cnc(C(=O)Nc2cc([C@]3(C)CS(=O)(=O)C(C)(C)C(=N)N3)c(F)cc2Br)cn1 [Example 9by]	2900	718	
CCC1C(=N)N[C@](C)(c2cc(NC(=O)c3ccc(F)cn3)ccc2F)CS1(=O)=O (stereo partly drawn) [Example 9ca]	9	33	
CC1(C)C(=N)N[C@](C)(c2nc(NC(=O)c3ccc(Cl)cn3)ccc2F)CS1(=O)=O [Example 9cc]	≤ 10	13.7	
CC1(C)C(=N)N[C@](C)(c2nc(NC(=O)c3ccc(C(F)(F)F)cn3)ccc2F)CS1(=O)=O [Example 9cf]	40	25.7	
COc1cnc(C(=O)Nc2ccc(F)c([C@]3(C)CS(=O)(=O)C(C)(C)C(=N)N3)n2)cn1 [Example 9cg]	85	94.2	
COc1ccc(C(=O)Nc2ccc(F)c([C@]3(C)CS(=O)(=O)C(C)(C)C(=N)N3)n2)nn1 [Example 9ci]	44	219	
CC1(C)C(=N)N[C@](C)(c2nc(NC(=O)c3cnc(C(F)F)cn3)ccc2F)CS1(=O)=O [Example 9cj]	21		
CC1(C)C(=N)N[C@](C)(c2nc(NC(=O)c3cnc(Br)cn3)ccc2F)CS1(=O)=O [Example 9ck]	≤ 10	21.7	
CC[C@]1(C)C(=N)N[C@](C)(c2cc(NC(=O)c3ccc(OC)cn3)ccc2F)CS1(=O)=O [Example 9cm-b]	11 to 100		
CC[C@]1(C)C(=N)N[C@](C)(c2cc(NC(=O)c3cnc(OC)cn3)ccc2F)CS1(=O)=O [Example 9cn-b]	11 to 100		
C[C@@]1(c2cc(NC(=O)c3ccc(Cl)cn3)ccc2F)CS(=O)(=O)[C@@](C)(c2cccc(F)c2)C(=N)N1 [Example 9db-b]	11 to 100		
COc1cnc(C(=O)Nc2ccc(F)c([C@]3(C)CS(=O)(=O)[C@](C)(c4cc(C(F)(F)F)ccn4)C(=N)N3)c2)cn1 [Example 9ee-b]	11 to 100		

SMILES	Ki [2, 3] [nM]	Ki [1, 4] [nM]	also measured
CC1(C)C(=N)N[C@](C)(c2nc3ccc(-c4cccc(C#N)c4)cc3s2)CS1(=O)=O [Example 29c]			Ki ([1]; read-out: BACE1 Ki): 2380 nM
COc1cccc(-c2ccc3nc([C@]4(C)CS(=O)(=O)C(C)(C)C(=N)N4)sc3c2)c1 [Example 29d]			Ki ([1]; read-out: BACE1 Ki): 2840 nM
CC1(c2nc(C#Cc3ccc(F)cc3)ccc2F)CS(=O)(=O)C(C)(C)C(=N)N1 (stereo not drawn) [Example 31a]			inhibition at 10 µM [1]: 41%
Cc1nc2cc(CC3(C)C(=N)N[C@](C)(c4cc(F)ccc4F)CS3(=O)=O)ccc2s1 (stereo partly drawn) [Example 32-b]			BACE1 inhibition, % Inh. at 10 μM ([1]; at 10 μM): 7% Inh at 10 μM
COc1cccc([C@@]2(C)C(=N)N[C@](C)(c3cc(F)ccc3F)CS2(=O)=O)c1 [Example 32e-a]			Ki ([1]; read-out: BACE1 Ki): 1100 nM
COc1cccc([C@@]2(C)C(=N)N[C@](C)(c3ccc(F)cc3F)CS2(=O)=O)c1 [Example 32f-a]			Ki ([1]; read-out: BACE1 Ki): 1210 nM
COc1cccc([C@]2(C)C(=N)N[C@](C)(c3ccc(F)cc3F)CS2(=O)=O)c1 [Example 32f-b]			inhibition at 10 µM [1]: 30%
C[C@@]1(c2cccc(Br)c2)C(=N)N[C@](C)(c2ccc(F)cc2F)CS1(=O)=O [Example 32g-b]			Ki ([1]; read-out: BACE1 Ki): 8830 nM
C[C@@]1(c2cccc(C(F)(F)F)c2)C(=N)N[C@](C)(c2ccc(F)cc2F)CS1(=O)=O [Example 32h-b]			Ki ([1]; read-out: BACE1 Ki): 2120 nM
COc1cccc(C[C@@]2(C)C(=N)N[C@](C)(c3ccc(F)cc3F)CS2(=O)=O)c1 [Example 32i-a]			Ki ([1]; read-out: BACE1 Ki): 3120 nM
COc1cccc(C[C@]2(C)C(=N)N[C@](C)(c3ccc(F)cc3F)CS2(=O)=O)c1 [Example 32i-b]			Ki ([1]; read-out: BACE1 Ki): 3820 nM
C[C@]1(Cc2cccc(Br)c2)C(=N)N[C@](C)(c2ccc(F)cc2F)CS1(=O)=O [Example 32j-a]			Ki ([1]; read-out: BACE1 Ki): 2100 nM
C[C@@]1(c2ccc(F)cc2F)CS(=O)(=O)[C@](C)(Cc2cccc(Br)c2)C(=N)N1 [Example 32j-b]			Ki ([1]; read-out: BACE1 Ki): 1270 nM
C[C@@]1(c2ccc(F)cc2F)CS(=O)(=O)[C@@](C)(c2cccc(OCc3ccccc3)c2)C(=N)N1 [Example 34a]			Ki ([1]; read-out: BACE1 Ki): 2170 nM
C[C@@]1(c2ccc(F)cc2F)CS(=O)(=O)[C@@](C)(c2cccc(OCC3CC3)c2)C(=N)N1 [Example 34b]			Ki ([1]; read-out: BACE1 Ki): 1130 nM
C[C@@]1(c2cc(F)ccc2F)CS(=O)(=O)[C@@](C)(c2cccc(O)c2)C(=N)N1 [Example 34c-a]			Ki ([1]; read-out: BACE1 inhibition, Ki): 1000 nM
C[C@@]1(c2cccc(O)c2)C(=N)N[C@](C)(c2cc(F)ccc2F)CS1(=O)=O [Example 34c-b]			inhibition at 10 µM [1]: 48%
C[C@@]1(c2cc(F)ccc2F)CS(=O)(=O)[C@@](C)(c2cccc(OCc3ccccc3)c2)C(=N)N1 [Example 34d-a]			Ki ([1]; read-out: BACE1 inhibition, Ki): 2900 nM
